Results on 23 compounds are retold here after ChEMBL document CHEMBL1156313, “Structure-activity relationship of novel DAPK inhibitors identified by structure-based virtual screening” (Bioorg Med Chem, 2010).

For assay [1], the target named is T1, Death-associated protein kinase 3 (Homo sapiens, UniProt O43293). Put plainly: Inhibition of human recombinant DAPK3.
Target sequence in this assay (O43293 whole entry): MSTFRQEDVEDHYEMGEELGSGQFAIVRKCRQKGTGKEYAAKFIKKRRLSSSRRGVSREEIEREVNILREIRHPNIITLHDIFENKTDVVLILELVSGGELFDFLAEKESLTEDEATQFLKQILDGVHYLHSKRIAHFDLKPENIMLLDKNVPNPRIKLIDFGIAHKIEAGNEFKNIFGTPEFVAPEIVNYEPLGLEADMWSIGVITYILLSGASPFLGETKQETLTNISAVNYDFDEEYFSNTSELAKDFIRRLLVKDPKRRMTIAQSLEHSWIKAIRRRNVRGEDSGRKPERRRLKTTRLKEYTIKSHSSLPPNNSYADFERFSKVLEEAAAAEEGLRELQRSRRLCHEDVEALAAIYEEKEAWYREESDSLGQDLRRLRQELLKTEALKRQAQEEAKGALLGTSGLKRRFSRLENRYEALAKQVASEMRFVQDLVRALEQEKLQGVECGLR
Assay [2] concerns the target T1, Death-associated protein kinase 3. Put plainly: Inhibition of human recombinant DAPK3 at 1 uM.
Target sequence in this assay (O43293 whole entry, looked up): as the sequence (O43293 whole entry) above
For assay [3] the target is unchanged. The experiment in a line: Inhibition of human recombinant DAPK3 at 10 uM.
Target sequence in this assay (O43293 whole entry, looked up): as the sequence (O43293 whole entry) above
Assay [4] addresses T2, Serine/threonine-protein kinase Chk1 (Homo sapiens) (UniProt O14757).
T2 sequence (whole entry): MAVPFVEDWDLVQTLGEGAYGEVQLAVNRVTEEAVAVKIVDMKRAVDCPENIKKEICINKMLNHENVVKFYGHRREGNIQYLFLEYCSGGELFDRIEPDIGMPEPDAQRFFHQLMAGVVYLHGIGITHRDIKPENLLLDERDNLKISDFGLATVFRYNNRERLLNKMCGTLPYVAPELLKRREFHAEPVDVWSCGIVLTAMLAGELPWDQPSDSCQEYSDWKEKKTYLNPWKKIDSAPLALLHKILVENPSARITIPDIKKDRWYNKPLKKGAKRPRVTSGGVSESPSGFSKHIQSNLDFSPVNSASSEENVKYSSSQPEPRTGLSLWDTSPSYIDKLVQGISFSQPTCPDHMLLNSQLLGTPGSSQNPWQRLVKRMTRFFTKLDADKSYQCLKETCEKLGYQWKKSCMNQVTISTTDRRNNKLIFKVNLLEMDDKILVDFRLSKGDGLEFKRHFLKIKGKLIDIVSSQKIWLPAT
Put plainly: Inhibition of CHK1 at 10 uM.

Assay [5] concerns the target MAP kinase-activated protein kinase 2 (Homo sapiens) (UniProt P49137). Put plainly: Inhibition of MAPKAPK2 at 10 uM.
For assay [6], the target named is Mitogen-activated protein kinase 3 (Homo sapiens) (UniProt P27361). Put plainly: Inhibition of ERK1 at 10 uM.
In assay [7] the target is T3, Aurora kinase A (Homo sapiens) (UniProt O14965).
T3 sequence (whole entry): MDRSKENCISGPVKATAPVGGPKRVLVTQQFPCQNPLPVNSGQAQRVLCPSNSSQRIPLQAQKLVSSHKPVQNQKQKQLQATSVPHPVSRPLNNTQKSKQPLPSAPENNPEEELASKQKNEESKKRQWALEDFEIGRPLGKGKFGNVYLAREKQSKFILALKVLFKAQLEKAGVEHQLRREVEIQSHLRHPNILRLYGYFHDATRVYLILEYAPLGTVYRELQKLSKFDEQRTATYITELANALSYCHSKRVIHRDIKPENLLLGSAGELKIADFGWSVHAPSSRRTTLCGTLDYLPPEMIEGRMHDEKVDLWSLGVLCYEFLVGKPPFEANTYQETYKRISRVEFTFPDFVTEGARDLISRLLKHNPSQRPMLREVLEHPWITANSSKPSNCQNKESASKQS
Put plainly: Inhibition of Aurora A at 10 uM.

Assay [8] deals with RAC-beta serine/threonine-protein kinase (Homo sapiens) (UniProt P31751). Put plainly: Inhibition of AKT2 at 10 uM.
Assay [9] deals with Proto-oncogene tyrosine-protein kinase Src (Homo sapiens) (UniProt P12931). The experiment in a line: Inhibition of SRC at 10 uM.
The target of assay [10] is Insulin receptor (Homo sapiens) (UniProt P06213). Put plainly: Inhibition of INSR at 10 uM.
The target in assay [11] is Ribosomal protein S6 kinase alpha-1 (Homo sapiens) (UniProt Q15418). The experiment in a line: Inhibition of RSK1 at 10 uM.
For assay [12], the target named is RAC-alpha serine/threonine-protein kinase (Homo sapiens) (UniProt P31749). Put plainly: Inhibition of AKT1 at 10 uM.
In assay [13] the target is Tyrosine-protein kinase ABL1 (Homo sapiens) (UniProt P00519). The experiment in a line: Inhibition of ABL at 10 uM.
The target of assay [14] is Death-associated protein kinase 1 (Homo sapiens) (UniProt P53355). Put plainly: Inhibition of DAPK1 at 10 uM.
In assay [15] the target is T4, Serine/threonine-protein kinase D2 (Homo sapiens) (UniProt Q9BZL6).
T4 sequence (whole entry): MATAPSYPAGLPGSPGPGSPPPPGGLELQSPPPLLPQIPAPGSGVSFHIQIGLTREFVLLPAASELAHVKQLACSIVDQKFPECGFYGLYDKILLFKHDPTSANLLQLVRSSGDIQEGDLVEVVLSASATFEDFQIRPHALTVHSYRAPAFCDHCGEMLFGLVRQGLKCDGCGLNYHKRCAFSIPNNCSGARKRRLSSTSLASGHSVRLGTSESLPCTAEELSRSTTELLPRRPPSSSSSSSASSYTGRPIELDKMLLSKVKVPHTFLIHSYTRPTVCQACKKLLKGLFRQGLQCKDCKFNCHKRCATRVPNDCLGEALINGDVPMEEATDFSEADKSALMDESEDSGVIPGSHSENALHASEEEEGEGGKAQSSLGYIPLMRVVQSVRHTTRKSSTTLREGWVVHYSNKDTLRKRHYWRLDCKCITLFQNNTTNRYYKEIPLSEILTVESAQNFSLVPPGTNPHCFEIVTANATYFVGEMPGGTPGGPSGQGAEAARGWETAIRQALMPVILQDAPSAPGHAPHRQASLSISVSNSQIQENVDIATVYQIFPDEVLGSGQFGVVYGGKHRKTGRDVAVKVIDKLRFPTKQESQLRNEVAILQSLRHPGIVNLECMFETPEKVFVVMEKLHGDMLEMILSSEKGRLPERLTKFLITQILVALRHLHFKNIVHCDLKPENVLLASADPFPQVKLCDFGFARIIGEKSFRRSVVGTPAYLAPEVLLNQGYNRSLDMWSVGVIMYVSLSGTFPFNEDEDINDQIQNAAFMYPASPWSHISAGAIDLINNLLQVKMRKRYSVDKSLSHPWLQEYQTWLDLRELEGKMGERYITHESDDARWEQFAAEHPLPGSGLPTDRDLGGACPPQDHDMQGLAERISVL
Put plainly: Inhibition of PKD2 at 10 uM.

Assay [16] deals with T5, Protein kinase C zeta type (Homo sapiens) (UniProt Q05513).
T5 sequence (whole entry): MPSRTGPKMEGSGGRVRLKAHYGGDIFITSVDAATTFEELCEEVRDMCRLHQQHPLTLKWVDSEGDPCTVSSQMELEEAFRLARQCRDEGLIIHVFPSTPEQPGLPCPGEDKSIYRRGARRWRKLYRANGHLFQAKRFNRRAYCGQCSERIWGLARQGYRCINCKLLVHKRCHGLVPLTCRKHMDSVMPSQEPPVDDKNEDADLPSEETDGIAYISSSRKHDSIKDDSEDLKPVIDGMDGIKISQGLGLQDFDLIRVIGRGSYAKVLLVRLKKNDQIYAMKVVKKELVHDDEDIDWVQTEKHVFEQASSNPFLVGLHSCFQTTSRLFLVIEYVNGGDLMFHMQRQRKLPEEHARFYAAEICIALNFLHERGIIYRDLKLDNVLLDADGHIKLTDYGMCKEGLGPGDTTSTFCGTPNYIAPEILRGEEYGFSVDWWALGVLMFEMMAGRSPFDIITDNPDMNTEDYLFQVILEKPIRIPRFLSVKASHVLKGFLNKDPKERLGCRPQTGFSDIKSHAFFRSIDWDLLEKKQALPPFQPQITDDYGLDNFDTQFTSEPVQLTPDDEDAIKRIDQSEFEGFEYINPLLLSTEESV
Put plainly: Inhibition of PKCzeta at 10 uM.

For assay [17], the target named is Mitogen-activated protein kinase 14 (Homo sapiens) (UniProt Q16539). Put plainly: Inhibition of P38alpha at 10 uM.
Assay [18] in a line: Inhibition of PKA at 10 uM.
Assay [19] concerns the target Serine/threonine-protein kinase Chk2 (Homo sapiens) (UniProt O96017). Put plainly: Inhibition of CHK2 at 10 uM.
Assay [20] addresses Mitogen-activated protein kinase 1 (Homo sapiens) (UniProt P28482). The experiment in a line: Inhibition of ERK2 at 10 uM.
For assay [21], the target named is Tyrosine-protein kinase Lyn (Homo sapiens) (UniProt P07948). The experiment in a line: Inhibition of LYN at 10 uM.
Assay [22] addresses Tyrosine-protein kinase Fyn (Homo sapiens) (UniProt P06241). Put plainly: Inhibition of FYN at 10 uM.
For assay [23], the target named is Tyrosine-protein kinase Lck (Homo sapiens) (UniProt P06239). The experiment in a line: Inhibition of LCK at 10 uM.
For assay [24], the target named is Glycogen synthase kinase-3 beta (Homo sapiens) (UniProt P49841). The experiment in a line: Inhibition of GSK3-beta at 10 uM.

Sequence of Mitogen-activated protein kinase 3 (Homo sapiens) (P27361 whole entry): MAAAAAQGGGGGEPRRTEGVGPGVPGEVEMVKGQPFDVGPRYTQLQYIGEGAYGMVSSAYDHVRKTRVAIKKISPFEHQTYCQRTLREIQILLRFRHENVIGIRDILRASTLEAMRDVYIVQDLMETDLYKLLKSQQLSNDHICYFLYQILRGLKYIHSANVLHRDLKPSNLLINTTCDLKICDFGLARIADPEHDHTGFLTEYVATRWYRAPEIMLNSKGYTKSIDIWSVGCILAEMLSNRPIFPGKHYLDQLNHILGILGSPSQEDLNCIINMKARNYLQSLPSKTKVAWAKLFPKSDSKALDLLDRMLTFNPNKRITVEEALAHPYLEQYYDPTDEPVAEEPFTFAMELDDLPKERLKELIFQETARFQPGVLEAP
Sequence of RAC-beta serine/threonine-protein kinase (Homo sapiens) (P31751 whole entry): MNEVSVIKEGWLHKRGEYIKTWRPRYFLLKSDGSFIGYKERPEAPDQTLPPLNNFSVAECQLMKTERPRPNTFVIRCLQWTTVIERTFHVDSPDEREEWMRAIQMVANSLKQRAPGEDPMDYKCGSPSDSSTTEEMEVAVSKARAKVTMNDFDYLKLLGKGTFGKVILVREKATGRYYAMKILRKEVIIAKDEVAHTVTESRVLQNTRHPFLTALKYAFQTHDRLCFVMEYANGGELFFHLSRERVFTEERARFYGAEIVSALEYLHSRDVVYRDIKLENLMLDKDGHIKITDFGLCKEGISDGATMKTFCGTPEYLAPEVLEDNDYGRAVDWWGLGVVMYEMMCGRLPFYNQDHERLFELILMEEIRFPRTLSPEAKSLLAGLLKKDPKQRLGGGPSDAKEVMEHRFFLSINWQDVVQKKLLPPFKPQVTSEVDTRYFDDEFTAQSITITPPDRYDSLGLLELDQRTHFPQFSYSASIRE
Sequence of Death-associated protein kinase 1 (Homo sapiens) (P53355 whole entry, looked up): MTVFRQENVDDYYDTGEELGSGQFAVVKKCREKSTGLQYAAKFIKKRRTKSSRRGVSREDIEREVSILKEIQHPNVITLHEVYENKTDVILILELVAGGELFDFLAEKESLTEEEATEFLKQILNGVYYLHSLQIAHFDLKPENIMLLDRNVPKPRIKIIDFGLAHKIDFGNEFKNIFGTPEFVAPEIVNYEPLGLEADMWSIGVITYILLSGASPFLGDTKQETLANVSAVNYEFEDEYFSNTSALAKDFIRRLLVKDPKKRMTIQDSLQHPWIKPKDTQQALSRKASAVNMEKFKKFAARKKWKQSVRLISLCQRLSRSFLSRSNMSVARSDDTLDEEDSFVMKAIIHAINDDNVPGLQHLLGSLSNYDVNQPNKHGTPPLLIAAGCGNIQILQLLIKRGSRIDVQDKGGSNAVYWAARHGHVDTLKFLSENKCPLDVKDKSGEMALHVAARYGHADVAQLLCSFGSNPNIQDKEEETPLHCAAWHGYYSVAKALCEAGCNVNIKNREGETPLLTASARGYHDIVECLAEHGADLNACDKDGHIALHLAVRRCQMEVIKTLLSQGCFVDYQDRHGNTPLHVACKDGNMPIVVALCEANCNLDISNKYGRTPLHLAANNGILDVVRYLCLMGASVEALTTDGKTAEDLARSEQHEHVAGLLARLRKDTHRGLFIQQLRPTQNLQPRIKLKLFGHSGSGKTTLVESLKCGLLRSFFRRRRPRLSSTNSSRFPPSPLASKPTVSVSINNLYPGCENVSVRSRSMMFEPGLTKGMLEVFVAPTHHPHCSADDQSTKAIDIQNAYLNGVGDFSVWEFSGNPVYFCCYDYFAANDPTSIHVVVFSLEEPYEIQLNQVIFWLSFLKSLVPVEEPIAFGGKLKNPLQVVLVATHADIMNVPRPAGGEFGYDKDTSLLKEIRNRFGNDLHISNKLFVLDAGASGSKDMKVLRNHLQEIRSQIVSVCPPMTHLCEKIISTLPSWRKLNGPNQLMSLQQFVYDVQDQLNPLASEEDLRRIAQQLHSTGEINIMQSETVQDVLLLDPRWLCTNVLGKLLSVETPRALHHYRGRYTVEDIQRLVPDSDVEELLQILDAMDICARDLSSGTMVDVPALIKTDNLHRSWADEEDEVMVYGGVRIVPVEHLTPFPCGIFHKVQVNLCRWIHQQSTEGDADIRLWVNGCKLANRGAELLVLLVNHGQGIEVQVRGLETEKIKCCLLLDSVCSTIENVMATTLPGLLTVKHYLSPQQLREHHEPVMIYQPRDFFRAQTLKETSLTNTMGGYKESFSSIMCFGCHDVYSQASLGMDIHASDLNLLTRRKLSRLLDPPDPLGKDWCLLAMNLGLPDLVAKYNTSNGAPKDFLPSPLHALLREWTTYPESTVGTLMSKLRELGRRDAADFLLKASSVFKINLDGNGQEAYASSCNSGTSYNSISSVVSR
Sequence of Proto-oncogene tyrosine-protein kinase Src (Homo sapiens) (P12931 2-536 limits assumed): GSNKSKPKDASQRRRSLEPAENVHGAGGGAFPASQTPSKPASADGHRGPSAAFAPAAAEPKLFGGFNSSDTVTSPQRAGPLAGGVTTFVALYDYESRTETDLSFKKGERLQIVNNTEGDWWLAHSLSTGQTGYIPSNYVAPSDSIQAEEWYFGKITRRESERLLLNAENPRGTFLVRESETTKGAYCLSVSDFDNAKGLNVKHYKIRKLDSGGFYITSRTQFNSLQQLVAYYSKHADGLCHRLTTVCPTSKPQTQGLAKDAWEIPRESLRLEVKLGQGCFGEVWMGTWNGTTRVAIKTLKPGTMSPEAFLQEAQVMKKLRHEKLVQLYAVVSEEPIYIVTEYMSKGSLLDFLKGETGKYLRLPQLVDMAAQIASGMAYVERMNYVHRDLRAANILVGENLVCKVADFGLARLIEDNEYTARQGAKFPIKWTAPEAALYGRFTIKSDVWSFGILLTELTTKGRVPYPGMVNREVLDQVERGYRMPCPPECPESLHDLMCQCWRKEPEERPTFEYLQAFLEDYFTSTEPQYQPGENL
Sequence of RAC-alpha serine/threonine-protein kinase (Homo sapiens) (P31749 whole entry): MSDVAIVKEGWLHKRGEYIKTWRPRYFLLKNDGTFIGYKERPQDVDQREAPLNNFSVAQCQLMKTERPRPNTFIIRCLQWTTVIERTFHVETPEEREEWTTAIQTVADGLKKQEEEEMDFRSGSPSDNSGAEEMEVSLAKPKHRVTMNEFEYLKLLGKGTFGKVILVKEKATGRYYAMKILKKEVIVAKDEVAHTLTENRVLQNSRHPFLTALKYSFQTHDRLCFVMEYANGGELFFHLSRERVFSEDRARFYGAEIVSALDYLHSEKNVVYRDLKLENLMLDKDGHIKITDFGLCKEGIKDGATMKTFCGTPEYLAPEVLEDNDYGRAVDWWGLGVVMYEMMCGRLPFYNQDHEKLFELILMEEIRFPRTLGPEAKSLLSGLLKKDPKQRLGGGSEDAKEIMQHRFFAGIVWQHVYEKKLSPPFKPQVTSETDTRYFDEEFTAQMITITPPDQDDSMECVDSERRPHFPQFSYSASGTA
Sequence of Mitogen-activated protein kinase 14 (Homo sapiens) (Q16539 whole entry): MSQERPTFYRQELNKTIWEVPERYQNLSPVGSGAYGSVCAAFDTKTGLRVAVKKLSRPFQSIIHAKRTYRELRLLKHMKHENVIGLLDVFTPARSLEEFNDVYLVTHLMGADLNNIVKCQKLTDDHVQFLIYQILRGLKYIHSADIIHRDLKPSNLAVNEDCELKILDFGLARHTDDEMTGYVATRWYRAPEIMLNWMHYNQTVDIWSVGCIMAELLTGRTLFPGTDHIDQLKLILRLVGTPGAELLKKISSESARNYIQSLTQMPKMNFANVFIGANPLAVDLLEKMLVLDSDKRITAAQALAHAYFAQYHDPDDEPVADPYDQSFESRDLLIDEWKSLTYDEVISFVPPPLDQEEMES
Sequence of Serine/threonine-protein kinase Chk2 (Homo sapiens) (O96017 whole entry): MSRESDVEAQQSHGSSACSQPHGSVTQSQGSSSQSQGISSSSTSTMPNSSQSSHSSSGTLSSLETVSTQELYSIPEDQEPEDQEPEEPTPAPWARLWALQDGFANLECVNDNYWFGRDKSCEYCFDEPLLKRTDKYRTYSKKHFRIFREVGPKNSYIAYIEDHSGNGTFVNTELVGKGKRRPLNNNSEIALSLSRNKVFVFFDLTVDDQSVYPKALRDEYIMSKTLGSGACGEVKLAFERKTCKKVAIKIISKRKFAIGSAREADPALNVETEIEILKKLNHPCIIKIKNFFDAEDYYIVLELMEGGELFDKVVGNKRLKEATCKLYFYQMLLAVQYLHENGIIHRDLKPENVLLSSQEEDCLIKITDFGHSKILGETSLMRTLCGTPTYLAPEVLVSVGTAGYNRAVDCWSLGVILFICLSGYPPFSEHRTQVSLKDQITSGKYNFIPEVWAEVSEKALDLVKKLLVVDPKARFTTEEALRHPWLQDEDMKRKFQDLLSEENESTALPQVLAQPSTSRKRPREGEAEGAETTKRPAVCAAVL

The term IC50 denotes the point on the concentration scale where inhibition reaches its midpoint. As usually defined, the inhibition is the relative decrease from the control value, in per cent. In the case of `O=C1OC(c2ccc([N+](=O)[O-])cc2)=N/C1=C\c1cccnc1`, the IC50 in [1] was 291 nM. Besides, the inhibition was found to be 90% in [2] and 94% in assay [3].

In the case of `O=C1OC(c2ccccc2)=N/C1=C\c1ccncc1`, the inhibition in assay [2] was determined as 0%; in assay [3], 1%.

With `Cc1ccc(C2=N/C(=C\c3cccnc3)C(=O)O2)cc1[N+](=O)[O-]`, the IC50 in assay [1] is 534 nM. The inhibition was determined as 72% in assay [2] and 90% in [3].

In the case of `COc1ccc(C2=N/C(=C\c3cccnc3)C(=O)O2)c(Br)c1`, in assay [1], the IC50 was found to be 157 nM. Further, the inhibition is 100% in [2] and 92% in [3].

Take `Cc1cccc(C2=N/C(=C\c3cccnc3)C(=O)O2)c1`: the inhibition in [4] turned out to be 5%; in [5] it was 3%; in assay [6], 0%; in [7] it was 3%; in assay [8], 6%; in assay [9], 5%. In addition, the inhibition was determined as 3% in assay [10]; 15% in assay [11]; 5% in assay [12]; 1% in assay [13]; 98% in assay [14]; 68% in assay [2]. For the same compound, the inhibition in [15] was determined as 1%; in assay [3], 96%; in [16], 2%; in [17] it was 1%. Also, in assay [1], the IC50 came to 714 nM.

Turning to `O=C1OC(c2cccc(Br)c2)=N/C1=C\c1ccncc1`, the inhibition came out at 1% in assay [2] and 0% in assay [3].

`O=C1OC(c2cccc(Cl)c2)=N/C1=C\c1cccnc1`: in assay [1], the IC50 turned out to be 360 nM. The inhibition in assay [2] was 85%; in assay [3] it was 97%.

Turning to `O=C1OC(c2cccc(Br)c2)=N/C1=C\c1cccnc1`, the IC50 in assay [1] is 148 nM. The inhibition in assay [2] and in [3] was 100% in each case.

In the case of `O=C1OC(c2ccc([N+](=O)[O-])cc2)=N/C1=C\c1ccncc1`, the inhibition in assay [2] is 0%; in [3] it was 2%.

As to `O=C1OC(c2ccc(Cl)cc2Cl)=N/C1=C\c1cccnc1`, the inhibition turned out to be 42% in [2] and 78% in assay [3].

Take `O=C1OC(c2ccc(F)c(F)c2)=N/C1=C\c1cccnc1`: the inhibition in assay [18] stood at 2%; in assay [19], 7%; in assay [4], 7%; in assay [6] it was 25%; in assay [7] it was 8%; in assay [20], 34%. Also, the inhibition in assay [21] amounted to 2%; in assay [22] it was 2%; in [8], 18%; in assay [23], 3%; in [9], 6%; in assay [10], 7%. The inhibition was 12% in assay [12]; 97% in assay [14]; 89% in [2]; 3% in assay [15]; 98% in assay [3]; 8% in assay [16]. The inhibition in assay [24] was determined as 0%; in assay [17] it was 8%. The IC50 in assay [1] amounted to 346 nM.

Turning to `COc1ccc(C2=N/C(=C\c3cccnc3)C(=O)O2)cc1OC`, the inhibition came to 14% in assay [2] and 36% in assay [3].

On to `O=C1OC(c2cccc([N+](=O)[O-])c2)=N/C1=C\c1ccncc1`, for which the inhibition in assay [2] and in [3] was 0% throughout.

For the compound `COc1cccc(C2=N/C(=C\c3cccnc3)C(=O)O2)c1`, the IC50 in [1] turned out to be 395 nM. In addition, the figures for the inhibition in assay [2] and in [3] were 99% and 100%, respectively.

In the case of `O=C1OC(c2ccc(Cl)c([N+](=O)[O-])c2)=N/C1=C\c1cccnc1`, in [1], the IC50 worked out at 278 nM. Further, the inhibition in assay [2] and in [3] was 100% each time.

Take `O=C1OC(c2ccc(Cl)c([N+](=O)[O-])c2)=N/C1=C\c1ccncc1`: the inhibition in assay [2] stood at 0%; in assay [3] it was 10%.

`COc1cc(C2=N/C(=C\c3cccnc3)C(=O)O2)cc(OC)c1OC`: the inhibition in assay [2] was determined as 26%; in assay [3] it was 33%.

Take `COc1ccc(C2=N/C(=C\c3cccnc3)C(=O)O2)cc1Br`: the inhibition in [2] and in [3] was 32% in each case.

`O=C1N=C(N2CCCCC2)S/C1=C\c1cccnc1`: in assay [3], the inhibition is 29%.

In the case of `O=C1OC(c2cc(I)ccc2Cl)=N/C1=C\c1ccncc1`, the IC50 in assay [1] was determined as 227 nM. In addition, the inhibition turned out to be 83% in [2] and 97% in assay [3].

`O=C1OC(C23CC4CC(CC(C4)C2)C3)=N/C1=C\c1cccnc1`: in assay [3], the inhibition is 45%.

Turning to `O=C1OC(c2ccc(Cl)cc2)=C/C1=C\c1cccnc1`, the inhibition in assay [3] was 3%.

For `O=C1OC(c2ccccc2)=N/C1=C\c1ccccc1`, the inhibition in assay [3] is 4%.
